Tests used:
angiogenesis = details: cited from earlier work
[1] = Premature curing of cyanoacrylate by angiogenic agent; assay type: physicochemical; details: in combination with cyanoacrylate
[2] = Release of tributyrin from cured blended adhesive disks into water, gas chromatography; assay type: physicochemical; details: 5% w/w tributyrin cyanoacrylate sample; 2 ml water, 50° C., 1, 5 or 7 days with continuous agitation
Experimental: 0.5g of the sterile tributyrin was added to cyanoacrylate (9.5 g) to produce a 5% (w/w) blend in a sterile plastic universal tube. This was mixed for 2 minutes to ensure a homogenous blend. Small disks of the blended adhesive were cast onto a basic solution (dilute triethylamine 0.1% aq). The disks were removed, washed briefly and dried. The disks were then placed into 2 ml water and stored at 50° C. for 1, 5 or 7 days with continuous agitation. The water was removed then added to 2 mls dichloromethane in order to extract any released tributyrin. The dichloromethane layer was analysed using gas chromatography and the amount of tributyrin recorded. The disks were dried and then placed into fresh water at 50° C. for an additional day. The amount of tributyrin released into the fresh water was measured as described for the first samples.

[3] = Bond strength of tributyrin/cyanoacrylate blend on costal cartilage (Nene MC3000); assay type: physicochemical; details: 5% to 50% (w/w) tributyrin in cyanoacrylate; held 1 minute, cured an additional hour in aqueous conditions
Experimental: 0.5 g of the sterile tributyrin was added to cyanoacrylate (9.5 g) to produce a 5% (w/w) blend in a sterile plastic universal tube. This was mixed for 2 minutes to ensure a homogenous blend. 40 μl aliquots of the blended adhesive were applied to freshly cut surfaces of costal cartilage. The two surfaces were held together for 1 minute allowing fixation and curing was allowed to continue for an additional hour in aqueous conditions. The bond strength was tested using a Nene MC3000 machine, where the applied force required to separate the bonded pieces of cartilage was recorded.

In the case of CCCC(=O)O [butyric acid, butanoic acid], the “local release sufficient to achieve the desired angiogenic effect” value (angiogenesis) is given as 10 to 1000 ng.

For CCCC(=O)OCC(COC(=O)CCC)OC(=O)CCC [tributyrin, glcerol tributyrate; 1,2,3-(propyl)tributanoate], the “premature cure of cyanoacrylate” value [1] was “do not cause cyanoacrylate to prematurely cure”, the “tributyrin released from cured adhesive disks” value [2] was “released from a 5% w/w tributyrin cyanoacrylate sample over a 7 day period” and the “adhesive property (bond strength; applied force required to separate the bonded pieces of cartilage)” value [3] was “without an unacceptable loss of adhesive property”.
